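Interpolation was linear, between the two tested concentrations surrounding the appropriate level; five concentrations were tested over 48 hours in 96-well plates. GI50 is the concentration that inhibits growth by half.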 Activity calls are given as the source filed them. Rule as the data show it: active = GI50 up to about 1.1 µM and inactive = higher.
Key:
Experiment in all cases: DTP human tumour cell line panel, 48 h
MOLT-4 = tested on: MOLT-4
HCT-116 = tested on: HCT-116
SK-MEL-5 = tested on: SK-MEL-5
SF-268 = tested on: SF-268
EKVX = tested on: EKVX
U-251 = tested on: U-251
NCI-H522 = tested on: NCI-H522
OVCAR-4 = tested on: OVCAR-4
HCT-15 = tested on: HCT-15
UACC-62 = tested on: UACC-62
PC-3 = tested on: PC-3
T47D = tested on: T47D
SK-MEL-2 = tested on: SK-MEL-2
OVCAR-8 = tested on: OVCAR-8
MDA-MB-435 = tested on: MDA-MB-435
HCC 2998 = tested on: HCC 2998
RPMI-8226 = tested on: RPMI-8226
A498 = tested on: A498

SMILES | GI50 (MOLT-4) | GI50 (HCT-116) | GI50 (SK-MEL-5) | GI50 (SF-268) | GI50 (EKVX) | GI50 (U-251) | GI50 (NCI-H522) | GI50 (OVCAR-4) | GI50 (HCT-15) [µM] | GI50 (UACC-62) | GI50 (PC-3) | GI50 (T47D) | GI50 (SK-MEL-2) | GI50 (OVCAR-8) | GI50 (MDA-MB-435) | GI50 (HCC 2998) | GI50 (RPMI-8226) | GI50 (A498)
COC(=O)c1c(C)cccc1C1CN=NC12Cc1cc(C)c(C)cc1C2=O (configuration not stated) | 33.9 µM (inactive) | 34.8 µM (inactive) | 17.1 µM (inactive) | 66.5 µM (inactive) | 59.6 µM (inactive) | 41.6 µM (inactive) | 19.2 µM (inactive) | 52 µM (inactive) | 30.5 | 69.5 µM (inactive) | 34.7 µM (inactive) | 40.6 µM (inactive) | 31 µM (inactive) | 78.7 µM (inactive) | 27.9 µM (inactive) | > 100 µM (inactive) |  | 
Nc1ccc(C(=O)O)cc1 [AMINOBENZOIC ACID] | > 100 µM (inactive) | > 100 µM (inactive) | > 100 µM (inactive) | > 100 µM (inactive) | > 100 µM (inactive) | > 100 µM (inactive) | > 100 µM (inactive) | > 100 µM (inactive) | 21.1 |  | > 100 µM (inactive) | > 100 µM (inactive) | > 100 µM (inactive) | > 100 µM (inactive) | > 100 µM (inactive) | > 100 µM (inactive) | > 100 µM (inactive) | 
CC(=O)/C=c1\[nH]/c(=C\C=C\c2ccccc2)c(=O)n1/C=C1\C(=O)Oc2ccccc2C1=O | > 100 µM (inactive) | > 100 µM (inactive) | > 100 µM (inactive) | > 100 µM (inactive) | 40.6 µM (inactive) | > 100 µM (inactive) | > 100 µM (inactive) | > 100 µM (inactive) | > 100 | > 100 µM (inactive) | > 100 µM (inactive) |  | > 100 µM (inactive) | > 100 µM (inactive) | > 100 µM (inactive) |  | > 100 µM (inactive) | 15.3 µM (inactive)
C[C@]12CCC(=O)C=C1CC[C@@H]1[C@@H]2CC[C@]2(C)C(=O)[C@H](n3ccnc3)C[C@@H]12 | 35.2 µM (inactive) | > 100 µM (inactive) | 63.1 µM (inactive) | > 100 µM (inactive) | > 100 µM (inactive) | > 100 µM (inactive) | > 100 µM (inactive) | > 100 µM (inactive) | > 100 | > 100 µM (inactive) | > 100 µM (inactive) |  | > 100 µM (inactive) | > 100 µM (inactive) | > 100 µM (inactive) |  | > 100 µM (inactive) | > 100 µM (inactive)
C[C@H]1[C@H](C)CC[C@]2(C)CC[C@]3(C)C(=C[C@@H](O)[C@@H]4[C@@]5(C)[C@H](O)[C@@H](O)[C@H](O)C(C)(C)[C@@H]5CC[C@]43C)[C@H]12 | 82.4 µM (inactive) | > 100 µM (inactive) | > 100 µM (inactive) | > 100 µM (inactive) |  | > 100 µM (inactive) |  |  | > 100 | > 100 µM (inactive) | > 100 µM (inactive) |  | > 100 µM (inactive) | > 100 µM (inactive) | > 100 µM (inactive) |  | 55.6 µM (inactive) | > 100 µM (inactive)
COc1ccc(OC)c(-c2cc(=O)c3c(OC)c(OC)c(OC)c(OC)c3o2)c1 | 9.44 µM (inactive) | 27.6 µM (inactive) | 12.4 µM (inactive) | 36 µM (inactive) | 33 µM (inactive) | 28.4 µM (inactive) | 20 µM (inactive) | 20 µM (inactive) | 21.3 | 24.3 µM (inactive) |  | 2.13 µM (inactive) | 20 µM (inactive) | 25.7 µM (inactive) | 28 µM (inactive) | 28.6 µM (inactive) | 21.5 µM (inactive) | 36.1 µM (inactive)
C[C@@H](O)C(=O)N1[C@@H]2CC3CC[C@]2(CS1(=O)=O)C3(C)C | 31.1 µM (inactive) | 67.8 µM (inactive) | 49.2 µM (inactive) |  | 89.7 µM (inactive) | 52.1 µM (inactive) |  | 85.9 µM (inactive) | 56.6 | > 100 µM (inactive) | 96.8 µM (inactive) | > 100 µM (inactive) | > 100 µM (inactive) | > 100 µM (inactive) | 63.8 µM (inactive) | 49.1 µM (inactive) | 39.7 µM (inactive) | 
Cc1cc(C)nc(NC(P(=O)(O)O)P(=O)(O)O)n1 |  | > 100 µM (inactive) | > 100 µM (inactive) | > 100 µM (inactive) | > 100 µM (inactive) |  | > 100 µM (inactive) |  | > 100 | > 100 µM (inactive) | > 100 µM (inactive) |  |  | > 100 µM (inactive) |  | > 100 µM (inactive) |  | 
O=C(Nc1ccccc1)OCCN=c1c2ccccc2ccc2ccccc12 | 15.7 µM (inactive) | 16.9 µM (inactive) | 14.1 µM (inactive) | 34.8 µM (inactive) | 24.9 µM (inactive) | 25.9 µM (inactive) |  | 25.8 µM (inactive) | 26.1 | 15 µM (inactive) | 20.9 µM (inactive) | 13.1 µM (inactive) | 11.3 µM (inactive) | 26.5 µM (inactive) | 27.6 µM (inactive) | 11.2 µM (inactive) | 15.5 µM (inactive) | 
Cc1ccc2c(c1C)CC1(Cc3ccc(C)c(C)c3C1=O)C2=O (configuration not stated) | > 100 µM (inactive) | > 100 µM (inactive) | 76.9 µM (inactive) | > 100 µM (inactive) | 44.2 µM (inactive) | 44 µM (inactive) | > 100 µM (inactive) | 33.7 µM (inactive) | > 100 | > 100 µM (inactive) | > 100 µM (inactive) | > 100 µM (inactive) | > 100 µM (inactive) | 61.5 µM (inactive) | > 100 µM (inactive) | > 100 µM (inactive) | > 100 µM (inactive) | 
N#CC(C#N)=CNCCN1CCN(C=C(C#N)C#N)CC1 | > 100 µM (inactive) | > 100 µM (inactive) | > 100 µM (inactive) | > 100 µM (inactive) | > 100 µM (inactive) | > 100 µM (inactive) | > 100 µM (inactive) | > 100 µM (inactive) | > 100 | > 100 µM (inactive) | > 100 µM (inactive) | > 100 µM (inactive) | > 100 µM (inactive) | > 100 µM (inactive) | > 100 µM (inactive) |  | > 100 µM (inactive) | > 100 µM (inactive)
O=C1c2cccc3cc([N+](=O)[O-])cc(c23)C(=O)N1O | 28.1 µM (inactive) | 27 µM (inactive) | 35.6 µM (inactive) | 85.3 µM (inactive) | 47.9 µM (inactive) | 41.8 µM (inactive) | 58.7 µM (inactive) | 34.1 µM (inactive) | 32.7 | 23.9 µM (inactive) | 43.5 µM (inactive) | 37.2 µM (inactive) | 32.4 µM (inactive) | 44.5 µM (inactive) | 34.3 µM (inactive) | 25.2 µM (inactive) | 19.4 µM (inactive) | 
CS(=O)(=O)OCCCSCCSCCCOS(C)(=O)=O | > 100 µM (inactive) | > 100 µM (inactive) | > 100 µM (inactive) | > 100 µM (inactive) | > 100 µM (inactive) | > 100 µM (inactive) | > 100 µM (inactive) | > 100 µM (inactive) | > 100 | > 100 µM (inactive) | > 100 µM (inactive) | > 100 µM (inactive) |  | > 100 µM (inactive) | > 100 µM (inactive) | > 100 µM (inactive) |  | 
O=C(Nc1ccc2ncccc2c1)c1cc2c(cc1Cl)Sc1nccn1S2(=O)=O | 18.4 µM (inactive) | 12.8 µM (inactive) | 15.3 µM (inactive) | 18.1 µM (inactive) | 19.1 µM (inactive) | 13.6 µM (inactive) | 8.97 µM (inactive) | 26.2 µM (inactive) | 11 | 16.6 µM (inactive) | 33.6 µM (inactive) | 14.7 µM (inactive) | 17.3 µM (inactive) | 16.5 µM (inactive) | 4 µM (inactive) | 14.7 µM (inactive) | 6.85 µM (inactive) | 
CCOC(=O)c1cc(C#N)[nH]c1-c1ccsc1 | 15.3 µM (inactive) | 38.4 µM (inactive) | 34.9 µM (inactive) | 22.8 µM (inactive) | 17.6 µM (inactive) | 25.8 µM (inactive) | 30.3 µM (inactive) | 35.6 µM (inactive) | 29.1 | 47.1 µM (inactive) | 25.5 µM (inactive) |  | 46.7 µM (inactive) | 36.6 µM (inactive) | 23.1 µM (inactive) | 29.8 µM (inactive) | 23.6 µM (inactive) | 42.7 µM (inactive)
CC(=O)OC1CCC2(C)C(CCC3C4CC=C(C5(C)OCCO5)C4(C)CCC32)C1 (configuration not stated) | 17.3 µM (inactive) | 20.1 µM (inactive) | 15.6 µM (inactive) | 27.8 µM (inactive) | 21.7 µM (inactive) | 18 µM (inactive) |  | 19.7 µM (inactive) | 27.2 | 19.9 µM (inactive) | 17.3 µM (inactive) | 22.9 µM (inactive) | 18.5 µM (inactive) | 20.1 µM (inactive) | 20.3 µM (inactive) |  | 14.4 µM (inactive) | 24.9 µM (inactive)
Cc1cn(C(=O)NC23CC4CC(CC(C4)C2)C3)c(=O)[nH]c1=O | 41.5 µM (inactive) | 34.4 µM (inactive) | 38.3 µM (inactive) | 37.5 µM (inactive) | 23.9 µM (inactive) | 43.5 µM (inactive) |  | 38.7 µM (inactive) | 25.3 | 21.8 µM (inactive) | 35 µM (inactive) | 31.3 µM (inactive) | 19.9 µM (inactive) | 32.7 µM (inactive) | 61.4 µM (inactive) | 50.4 µM (inactive) | 25.5 µM (inactive) | 
